From ChEMBL document CHEMBL1649193, “Statins as potential antimalarial drugs: low relative potency and lack of synergy with conventional antimalarial drugs” (Antimicrob Agents Chemother, 2009) come the findings set out here.

SMILES strings stand for the structures.

For orientation: IC50 means the concentration needed to halve the response being measured. Broadly, the IC90 is the concentration needed for an effect of 90%.

Common to all, as to type: functional, organism-based
The test system of experiment [1] is Plasmodium falciparum. Briefly: Antimalarial activity against chloroquine-resistant Plasmodium falciparum Dd2 assessed as Plasmodium lactate dehydrogenase release after 48 hrs by colorimetry. The conditions noted are these: Dd2, 48 h.
For experiment [2], the system named is Plasmodium falciparum. Description: Antimalarial activity against chloroquine-sensitive Plasmodium falciparum 3D7 assessed as Plasmodium lactate dehydrogenase release after 48 hrs by colorimetry. The conditions noted are these: 3D7, 48 h.
Experiment [3] deals with Plasmodium falciparum. Briefly: Antimalarial activity against chloroquine-resistant Plasmodium falciparum E8B assessed as Plasmodium lactate dehydrogenase release after 48 hrs by colorimetry.

On to `CC(C)c1c(C(=O)Nc2ccccc2)c(-c2ccccc2)c(-c2ccc(F)cc2)n1CC[C@@H](O)C[C@@H](O)CC(=O)O` [ATORVASTATIN], for which the IC50 is 17 µM in the experiment with Plasmodium falciparum [1], 25 µM in the experiment on Plasmodium falciparum [2] and 17 µM in the experiment with Plasmodium falciparum [3]. For the same compound, the concentration for an effect of 90% (IC90) turned out to be 39 µM with Plasmodium falciparum [1], 68 µM in the experiment on Plasmodium falciparum [2] and 39 µM with Plasmodium falciparum [3].

As for `CC(C)c1nc(N(C)S(C)(=O)=O)nc(-c2ccc(F)cc2)c1/C=C/[C@@H](O)C[C@@H](O)CC(=O)O` [ROSUVASTATIN], the IC50 in the experiment with Plasmodium falciparum [1], with Plasmodium falciparum [2] and with Plasmodium falciparum [3] was 80 µM each time. The 90% effect concentration (IC90) came to 232 µM in the experiment with Plasmodium falciparum [1], 205 µM in the experiment on Plasmodium falciparum [2] and 232 µM in the experiment with Plasmodium falciparum [3].
